Experimental data published in patent US20230372273A1, “IONIC LIQUID COMPOSITIONS FOR SKIN DISEASES AND CONDITIONS” (CAGE BIO, INC., priority 2020, published 2023).

How the values were obtained:
[1] = cited from earlier work
Recombinant human KLK5 = target: T1, Recombinant human KLK5 (Homo sapiens, UniProt Q9Y337); experiment: hKLK5 enzymatic assay; format: biochemical; details: substrate S-2288, OD 405 nm, 37° C.; read-out: IC50 against hKLK5
T1 construct: purchased Speed Biosystems LLC YS1485
T1 sequence (Q9Y337 23-293): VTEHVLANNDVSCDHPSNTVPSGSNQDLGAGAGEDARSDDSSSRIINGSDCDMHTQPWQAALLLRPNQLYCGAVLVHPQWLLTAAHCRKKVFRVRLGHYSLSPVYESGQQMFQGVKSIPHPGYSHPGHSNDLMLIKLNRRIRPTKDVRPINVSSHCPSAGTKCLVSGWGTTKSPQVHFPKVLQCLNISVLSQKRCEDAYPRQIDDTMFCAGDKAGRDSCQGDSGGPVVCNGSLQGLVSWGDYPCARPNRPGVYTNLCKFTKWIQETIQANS
Description: hKLK5 Enzymatic Assay. Test compound CAGE1:2 (87.07% w/v) was diluted to 0.99 mM and control compound Aprotinin was prepared at 6 μM in di-water. A 2-fold serial dilution was then performed in di-water to generate 10 concentrations for CAGE1:2 (87.07% w/v) and 8 concentrations for Aprotinin which were 2× of the final concentrations in the reaction. Recombinant human KLK5 was purchased from Speed Biosystems LLC (Catalog No. YS1485, Lot No. 0330517, 17.2 μM). The substrate S-2288 was purchased from Diapharma Group, Inc (Catalog No. S820852, Lot No. N0889942).
The assay was carried out in 384-well clear bottom plate coated with 0.1% Tween 20 at 4° C. overnight and washed twice with di-water before usage. 50 μL 2× compound in water was mixed with 25 μL 4× hKLK5 enzyme (120 nM) prepared in 2× reaction buffer (100 mM Tris, pH 8.0, 200 mM NaCl, 0.2% PEG, 0.01% Tween 20, 2 mM EDTA). The enzymatic reaction was initiated by the addition of 25 μL 4× substrate S-2288 (2 mM) in 2× reaction buffer to all wells. OD 405 nm was measured every 30 seconds by SpetraMax 384 Plus at 37° C. for 1 hour.

[2] = Human cadaver skin permeation (Franz cells); format: in vitro ADME
Description: Human cadaver skin permeation evaluation. Dermatomed full thickness human cadaver skin samples, 250-350 μm, were mounted onto static Franz cells. […] Phosphate buffered saline (PBS), pH 7.4 was used as the receptor medium. CGB400 gel was applied to the stratum corneum side of the skin samples at a dose of 15 μL/cm^2 ( 15 mg/cm^2). The cells were kept in a chamber at 37 C for a period of 24 h. […] in the receptor chamber ensured that the receptor media was well mixed during this time. The receptor media was sampled at 4, 7, and 24 hours to quantify the amount of choline and geranic acid permeation. After 24 hours, the skin surface was washed before removing the stratum corneum (SC) by tape stripping. […] Following SC removal, the epidermis was separated from the dermis using a surgical sterile scalpel and the dermis was cut into pieces. Each layer was collected separately in glass vials containing 2 mL of 50:50 water:methanol mixture and was left to shake overnight to extract the choline and geranic acid. The amount of choline and geranic acid was measured using LC-MS/MS in the wash, epidermis, dermis, and the receptor medium.

[3] = system: Propionibacterium acnes clinical isolates

| Molecule | Log P [1] | IC50 (Recombinant human KLK5) | applied dose penetrated into the dermis [2] | estimated epidermal CAGE concentration [2] | molar ratio of choline to geranic acid in the epidermis [2] | effective concentration for antibacterial activity [3] | Minimum Inhibitory Concentration (MIC) ([3]; P. acnes isolates, 48 hours) |
| --- | --- | --- | --- | --- | --- | --- | --- |
| CC(C)=CCC/C(C)=C/C(=O)O [geranic acid, 3,7-dimethyl-2,6-octadienoic acid] | 2.8 |  |  |  |  |  |  |
| Choline geranate [CAGE1:2] |  | ~30 mM | About 9.5% | ~76 mM | 1.18 | < 0.45 mM | 0.025-0.2 % of neat CAGE1:2 |
